From EP3515899B1, “SOLKETAL-ETHERS, PRODUCTION METHOD AND USES THEREOF” (Cepsa S.A.U., priority 2016, dated 2018)

Experiment: Solubility of additives in diesel at 4°C (visual phase separation)
Assay type: physicochemical
Details: for limit of addition to diesel by solubility: conclusion from Example 2
Experimental: Tests for solubility in diesel at 4°C were performed with the effluent of the etherification of solketal with isobutylene. Table 1: Composition of the additive STBE
Three additives were prepared each with a different STBE/SLK ratio (1/3, 1/1 and 3/1 w/w) from […] this effluent. In turn, these additives were added to the same diesel fuel in increasing proportions (2, 10, 20, 30 and 50 % wt.).
Table 5: Results for STBE solubility in diesel at 4°C

solubility in diesel at 4°C (0.5 % wt. additive in diesel) | state of additive in diesel (Fig 1) (2% in diesel, photograph) | solubility in diesel at 4°C (60 % wt. additive in diesel) | solubility in diesel at 4°C (75 % wt. additive in diesel) | solubility in diesel at 4°C (80 % wt. additive in diesel) | SMILES | limit of addition to diesel by solubility
S | phase separation | – | – | – | CC1(C)OCC(CO)O1 (stereo not shown) [SLK, 2,2-dimethyl-4-hydroxymethyl-1,3-dioxolane, reference compound] | ≤ 0.5 % by weight
– | – | S | S | S | CCC(C)(C)OCC1COC(C)(C)O1 (stereo not shown) [STAE-97, solketal-ter-amyl-ether] | not limited by its solubility with diesel
